Values joined by “and” are separate entries in the source; they are usually repeats but may differ in a detail not shown here. Identical values can stand only once. Toxic doses and inconclusive results are not listed. Rule as the data show it: active = T/C of 150% or more; inactive = T/C below 125%.
Tested on: L1210 leukemia ip in BDF1 mice, survival T/C
Experiment: NCI In Vivo Anticancer Drug Screen. Data for tumor model L1210 Leukemia (intraperitoneal) in B6D2F1 (BDF1) mice
Details: endpoint: mean survival time, higher = longer survival
Procedure, shortened: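 Tumor cells were implanted, animals were treated, and survival was followed. The result divides the treated measurement by the vehicle-control measurement.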

[1] = dose: 100.0 mg/kg/injection, schedule: Q04DX003 (ip), vehicle: Klucel (hydroxypropylcellulose) (HPC)
[2] = dose: 200.0 mg/kg/injection, schedule: Q04DX003 (ip), vehicle: Klucel (hydroxypropylcellulose) (HPC)
[3] = dose: 400.0 mg/kg/injection, schedule: Q04DX003 (ip), vehicle: Klucel (hydroxypropylcellulose) (HPC)
[4] = dose: 100.0 mg/kg/injection, schedule: Q01DX001 (ip), vehicle: carboxymethylcellulose (CMC)
[5] = dose: 200.0 mg/kg/injection, schedule: Q01DX001 (ip), vehicle: carboxymethylcellulose (CMC)
[6] = dose: 100.0 mg/kg/injection, schedule: Q04DX002 (ip), vehicle: Klucel (hydroxypropylcellulose) (HPC)
[7] = dose: 200.0 mg/kg/injection, schedule: Q04DX002 (ip), vehicle: Klucel (hydroxypropylcellulose) (HPC)
[8] = dose: 400.0 mg/kg/injection, schedule: Q04DX002 (ip), vehicle: Klucel (hydroxypropylcellulose) (HPC)
[9] = dose: 100.0 mg/kg/injection, schedule: Q01DX001 (ip), vehicle: saline
[10] = dose: 200.0 mg/kg/injection, schedule: Q01DX001 (ip), vehicle: saline
[11] = dose: 200.0 mg/kg/injection, schedule: Q01DX009 (ip), vehicle: Klucel (hydroxypropylcellulose) (HPC)
[12] = dose: 400.0 mg/kg/injection, schedule: Q01DX009 (ip), vehicle: Klucel (hydroxypropylcellulose) (HPC)
[13] = dose: 100.0 mg/kg/injection, schedule: Q01DX001 (ip), vehicle: Klucel (hydroxypropylcellulose) (HPC)
[14] = dose: 200.0 mg/kg/injection, schedule: Q01DX001 (ip), vehicle: Klucel (hydroxypropylcellulose) (HPC)
[15] = dose: 400.0 mg/kg/injection, schedule: Q01DX001 (ip), vehicle: Klucel (hydroxypropylcellulose) (HPC)
[16] = dose: 100.0 mg/kg/injection, schedule: Q04DX002 (ip), vehicle: saline with Tween-80
[17] = dose: 100.0 mg/kg/injection, schedule: Q01DX009 (ip), vehicle: other
[18] = dose: 100.0 mg/kg/injection, schedule: Q04DX003 (ip), vehicle: other
[19] = dose: 200.0 mg/kg/injection, schedule: Q04DX003 (ip), vehicle: other
[20] = dose: 400.0 mg/kg/injection, schedule: Q04DX003 (ip), vehicle: other
[21] = dose: 400.0 mg/kg/injection, schedule: Q01DX001 (ip), vehicle: carboxymethylcellulose (CMC)
[22] = dose: 100.0 mg/kg/injection, schedule: Q04DX003 (ip), vehicle: saline with Tween-80

Measured: T/C

O=S(=O)(c1ccccc1)N1CC2C3C=CC(C3)C2C1 (centres undefined)
inactive: [1] 93 % of control | [2] 109 % of control | [3] 95 % of control

N#CCC(N)=C(C#N)C#N
inactive: [4] 94 % of control | dose: 100.0 mg/kg/injection, schedule: Q01DX Z (ip), vehicle: carboxymethylcellulose (CMC) 94 % of control | [5] 103 % of control

C/C=C\C=N\NC(=O)C(=O)N/N=C/C=C\C
inactive: [6] 97 % of control | [7] 91 % of control | [8] 112 % of control

Cc1cc2nc(N)sc2cc1C
inactive: dose: 25.0 mg/kg/injection, schedule: Q01DX009 (ip), vehicle: Klucel (hydroxypropylcellulose) (HPC) 101 % of control | dose: 50.0 mg/kg/injection, schedule: Q04DX003 (ip), vehicle: Klucel (hydroxypropylcellulose) (HPC) 100 % of control | [1] 89 % of control

CCCCCCCCOC(=O)c1[nH]cnc1N
inactive: dose: 50.0 mg/kg/injection, schedule: Q01DX001 (ip), vehicle: saline 100 % of control | [9] 96 % of control | [10] 96 % of control

COc1cc(SSc2ccc(N)c(OC)c2)ccc1N
inactive: dose: 75.0 mg/kg/injection, schedule: Q01DX001 (ip), vehicle: carboxymethylcellulose (CMC) 105 % of control | dose: 150.0 mg/kg/injection, schedule: Q01DX001 (ip), vehicle: carboxymethylcellulose (CMC) 88 % of control

O=C1c2ccccc2C(=O)N1N(c1ccccc1)c1ccccc1
inactive: dose: 50.0 mg/kg/injection, schedule: Q01DX009 (ip), vehicle: Klucel (hydroxypropylcellulose) (HPC) 108 % of control | [1] 95 % of control | [11] 106 % of control | [2] 97 % of control | [12] 103 % of control | [3] 109 % of control

COc1ccc([N+](=O)[O-])cc1NC(=O)NCc1cccnc1
inactive: [13] 91 % of control | dose: 100.0 mg/kg/injection, schedule: Q01DX009 (ip), vehicle: Klucel (hydroxypropylcellulose) (HPC) 93 % of control and 91 % of control | [6] 87 % of control and 92 % of control | [1] 103 % of control | [14] 93 % of control | [11] 93 % of control and 98 % of control | [7] 97 % of control and 87 % of control | [2] 100 % of control | [15] 90 % of control | [12] 93 % of control and 95 % of control | [8] 97 % of control and 92 % of control | [3] 101 % of control

C1COC(N2CC3CCC(CC3)C2)=N1
inactive: dose: 75.0 mg/kg/injection, schedule: Q01DX001 (ip), vehicle: saline 96 % of control | dose: 150.0 mg/kg/injection, schedule: Q01DX001 (ip), vehicle: saline 105 % of control

C=CNC(=O)C(c1ccccc1)N1CCCCC1 (centres undefined)
inactive: [13] 102 % of control | [14] 97 % of control | [15] 103 % of control

C1=CC2(CCC13CS3)CS2 (centres undefined)
inactive: [16] 91 % of control | dose: 200.0 mg/kg/injection, schedule: Q04DX002 (ip), vehicle: saline with Tween-80 88 % of control | dose: 400.0 mg/kg/injection, schedule: Q04DX002 (ip), vehicle: saline with Tween-80 91 % of control

N#CCCN(CCC#N)/N=N\c1nc[nH]c1C(N)=O
inactive: dose: 50.0 mg/kg/injection, schedule: Q01DX001 (ip), vehicle: water 104 % of control | dose: 50.0 mg/kg/injection, schedule: Q04DX003 (ip), vehicle: water 98 % of control | dose: 100.0 mg/kg/injection, schedule: Q01DX001 (ip), vehicle: other 104 % of control | dose: 100.0 mg/kg/injection, schedule: Q01DX001 (ip), vehicle: water 97 % of control | [17] 101 % of control | [18] 104 % of control | dose: 100.0 mg/kg/injection, schedule: Q04DX003 (ip), vehicle: water 100 % of control | dose: 200.0 mg/kg/injection, schedule: Q01DX001 (ip), vehicle: other 102 % of control | dose: 200.0 mg/kg/injection, schedule: Q01DX001 (ip), vehicle: water 96 % of control | dose: 200.0 mg/kg/injection, schedule: Q01DX009 (ip), vehicle: other 95 % of control | [19] 105 % of control | dose: 200.0 mg/kg/injection, schedule: Q04DX003 (ip), vehicle: water 102 % of control | dose: 400.0 mg/kg/injection, schedule: Q01DX001 (ip), vehicle: other 102 % of control | dose: 400.0 mg/kg/injection, schedule: Q01DX001 (ip), vehicle: water 101 % of control | dose: 400.0 mg/kg/injection, schedule: Q01DX009 (ip), vehicle: other 93 % of control | [20] 98 % of control | dose: 400.0 mg/kg/injection, schedule: Q04DX003 (ip), vehicle: water 97 % of control

CC(CC(=O)c1ccc(F)cc1)N1CCN(c2ccccc2)CC1 (centres undefined)
inactive: [4] 103 % of control | [5] 90 % of control | [21] 90 % of control

Cc1c(C=NCCNCCN=Cc2[nH]c(=S)[nH]c(=O)c2C)[nH]c(=S)[nH]c1=O
inactive: dose: 44.0 mg/kg/injection, schedule: Q04DX003 (ip), vehicle: saline with Tween-80 97 % of control and 98 % of control | dose: 66.0 mg/kg/injection, schedule: Q04DX003 (ip), vehicle: saline with Tween-80 106 % of control and 108 % of control | [22] 103 % of control and 110 % of control | dose: 150.0 mg/kg/injection, schedule: Q04DX003 (ip), vehicle: saline with Tween-80 98 % of control and 104 % of control | dose: 200.0 mg/kg/injection, schedule: Q04DX003 (ip), vehicle: saline with Tween-80 110 % of control | dose: 400.0 mg/kg/injection, schedule: Q04DX003 (ip), vehicle: saline with Tween-80 104 % of control

CC(=O)N1CCOC12CCN(Cc1ccccc1)CC2
inactive: dose: 25.0 mg/kg/injection, schedule: Q01DX009 (ip), vehicle: saline with Tween-80 92 % of control | dose: 50.0 mg/kg/injection, schedule: Q01DX009 (ip), vehicle: saline with Tween-80 98 % of control | dose: 100.0 mg/kg/injection, schedule: Q01DX009 (ip), vehicle: saline with Tween-80 88 % of control | [22] 100 % of control

OCc1ccc(OCc2ccccc2)c(OCc2ccccc2)c1
inactive: [17] 87 % of control | [18] 94 % of control | [19] 98 % of control | [20] 90 % of control

CCOC(=O)CCc1c(C(=O)OCC)[nH]c(C)c1C(=O)OC(C)(C)C
inactive: [13] 105 % of control | [14] 124 % of control | [15] 95 % of control

CCOC(=O)C1(C(=O)OCC)COC(=O)C2(CC)OC21 (centres undefined)
inactive: [9] 107 % of control | [10] 98 % of control | dose: 400.0 mg/kg/injection, schedule: Q01DX001 (ip), vehicle: saline 109 % of control

CCOC(=O)C(C)P(=O)(OCC)OCC (centres undefined)
inactive: dose: 100.0 mg/kg/injection, schedule: Q01DX009 (ip), vehicle: saline 112 % of control | dose: 200.0 mg/kg/injection, schedule: Q01DX009 (ip), vehicle: saline 104 % of control | dose: 400.0 mg/kg/injection, schedule: Q01DX009 (ip), vehicle: saline 109 % of control

CCCCCCCCCCCCCCCc1cc(=O)n(-c2ccc(NC(=O)/C=C/C(=O)O)cc2)n1C
inactive: [1] 98 % of control | [2] 94 % of control

Cn1c(N)c(N=Nc2ccc(S(=O)(=O)Nc3ncccn3)cc2)c(=O)n(C)c1=O
inactive: [4] 98 % of control | [5] 98 % of control | [21] 95 % of control

Cc1c([N+](=O)[O-])cc(C(C)(C)C)c(OS(C)(=O)=O)c1[N+](=O)[O-]
inactive: dose: 25.0 mg/kg/injection, schedule: Q04DX002 (ip), vehicle: saline with Tween-80 92 % of control | dose: 50.0 mg/kg/injection, schedule: Q04DX002 (ip), vehicle: saline with Tween-80 99 % of control | [16] 96 % of control

From PubChem BioAssay AID248 (DTP/NCI, 2004)
